According to patent US7413895B2, “DNA encoding neutral amino acid transporter” (Japan Science and Technology Corporation, priority 1998, dated 2008):
pKi: −log10 of the molar value.

Key:
[1] = biological target: T1, human amino acid transporter LAT1 (Homo sapiens, UniProt Q01650); experiment: Competitive antagonism test: incorporation of 14C-labeled leucine or phenylalanine into oocytes co-expressing human LAT1 and human 4F2hc in the presence of test substance; format: cell-based; set-up: expressed in transfected cells; details: 14C-labeled leucine 20 μM, test substance 2 mM, 30 minutes, choline chloride uptake solution
T1 sequence (Q01650 whole entry): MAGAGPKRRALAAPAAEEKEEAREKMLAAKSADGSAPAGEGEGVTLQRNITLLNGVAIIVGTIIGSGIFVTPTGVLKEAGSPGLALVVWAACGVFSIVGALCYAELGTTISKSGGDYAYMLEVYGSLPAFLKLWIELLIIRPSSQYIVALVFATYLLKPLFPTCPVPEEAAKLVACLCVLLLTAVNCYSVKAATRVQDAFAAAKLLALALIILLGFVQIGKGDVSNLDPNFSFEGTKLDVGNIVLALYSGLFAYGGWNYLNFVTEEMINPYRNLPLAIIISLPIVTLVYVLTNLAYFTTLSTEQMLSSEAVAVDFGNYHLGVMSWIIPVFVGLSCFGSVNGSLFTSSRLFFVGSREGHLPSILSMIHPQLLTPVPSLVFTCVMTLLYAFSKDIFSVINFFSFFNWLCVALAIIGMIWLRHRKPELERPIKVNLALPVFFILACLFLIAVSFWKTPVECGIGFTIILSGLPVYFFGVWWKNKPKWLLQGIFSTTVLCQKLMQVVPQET
T1 sequence (as listed by the source partner): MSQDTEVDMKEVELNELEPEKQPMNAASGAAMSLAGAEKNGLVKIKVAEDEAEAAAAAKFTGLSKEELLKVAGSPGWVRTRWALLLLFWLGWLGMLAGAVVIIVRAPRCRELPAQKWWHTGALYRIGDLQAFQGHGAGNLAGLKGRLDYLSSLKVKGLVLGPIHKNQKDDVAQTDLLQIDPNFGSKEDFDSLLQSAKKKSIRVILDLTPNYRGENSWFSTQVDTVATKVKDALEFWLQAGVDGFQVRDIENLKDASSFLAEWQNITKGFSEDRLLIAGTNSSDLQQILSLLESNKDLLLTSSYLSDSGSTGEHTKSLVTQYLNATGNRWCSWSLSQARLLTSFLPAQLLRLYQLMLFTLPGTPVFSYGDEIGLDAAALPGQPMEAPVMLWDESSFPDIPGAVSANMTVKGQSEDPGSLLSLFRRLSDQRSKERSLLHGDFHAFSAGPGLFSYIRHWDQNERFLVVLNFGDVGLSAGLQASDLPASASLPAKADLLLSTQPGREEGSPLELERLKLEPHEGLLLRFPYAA

CCRF-SB cells = experiment: Proliferation of CCRF-SB cells, effect of BCH; format: cell-based, human; details: expression of 4F2hc not detected
Human Daudi cells = experiment: Proliferation of Daudi cells with or without BCH; format: cell-based; details: 20 mM of BCH, 5 days, cell numbers counted
Experimental: (§1) T24 cells derived from human bladder cancer were incubated and maintained in an Eagle's minimal essential medium containing 10% of fetal bovine serum. Human Daudi cells were incubated and maintained in an RPMI medium containing 20% of fetal bovine serum. T24 cells or Daudil cells were incubated in a 24-well plate (800 cells/well) for 5 days in a medium with or without 20 mM of BCH and the cell numbers were counted.

[2] = tested on: rat liver cell line where LAT1 was highly expressed; experiment: Cell proliferation of cultured rat liver cell line, Cell Counting Kit-8; format: cell-based; details: 20 mM added to William's medium, incubation for 48 hours
Experimental: A rat liver cell line where LAT1 was highly expressed was incubated on a William's medium, 20 mM of D-leucine or BCH which suppressed the incorporation mediated by LAT1 were added to the medium and, by means of an incubation for 48 hours, cell numbers were investigated using a Cell Counting Kit-8 (manufactured by Dojindo Laboratories). The cell numbers were measured as an absorption at 450 nm (O.D. 450).

[3] = tested on: T24 cells derived from human bladder cancer; experiment: Inhibiting mode of leucine incorporation by T24 cells by BCH, double reciprocal plots; format: cell-based
Experimental: T24 cells derived from human bladder cancer were incubated and maintained in an Eagle's minimal essential medium containing 10% of fetal bovine serum. A test for the incorporation of amino acids into T24 cells was carried out by incubating the T24 cells on a 24-well plate and finished when the state became confluent. The amino acid incorporation test was started by removing the incubating solution and adding a Dulbecco's PBS (manufactured by Gibco) containing ^14C-amino acid and finished by removing it, cooling with ice and washing with a Dulbecco's PBS. After washing, the above was dissolved in 0.1N NaOH and the radioactivity was measured by a liquid scintillation counter.
Dependency of the ^14C-leucine incorporation by T24 cells on the concentration was measured in the absence of BCH, in the presence of 50 μM of BCH and in the presence of 100 μM of BCH and the inhibiting mode was investigated by means of double reciprocal plots.

P30/OHK cells = experiment: Proliferation of P30/OHK cells, effect of BCH; format: cell-based, human; details: expression of 4F2hc not detected
[4] = tested on: cells where both LAT1 and 4F2hc were strongly expressed; experiment: Proliferation of cells where both LAT1 and 4F2hc were strongly expressed, effect of BCH; format: cell-based, human
Experimental: as §1

[5] = biological target: T1, human amino acid transporter LAT1; experiment: Incorporation of 14C-labeled amino acids into oocytes co-expressing human LAT1 and human 4F2hc; format: cell-based; set-up: expressed in transfected cells; details: summary statement of the disclosure
Mouse sarcoma 180 cells = experiment: Survival of ICR mouse after intraperitoneal transplantation of mouse sarcoma 180 cells; format: in vivo; details: male ICR mouse, sarcoma 180 cells intraperitoneally transplanted, 300 mg/kg for ten days, observation for 19 days
Experimental: Mouse sarcoma 180 cells were intraperitoneally transplanted (1×10^6) to male ICR mouse and, from the next day of the transplantation, BCH which was a inhibitor for the amino acid transporter, D-Leu having a inhibiting effect on amino acid transporter and D-Ala having no inhibiting action thereon were administered at the dose of 300 mg/kg for ten days. After the transplantation, it was confirmed every day whether the mouse was dead or alive.

[6] = tested on: T24 cells derived from human bladder cancer; experiment: Inhibition of 14C-leucine incorporation by T24 cells by amino acids and similar substances; format: cell-based; details: 14C-leucine 20 μM, 2 mM unlabeled compound
[7] = tested on: T24 cells derived from human bladder cancer; experiment: Proliferation of T24 cells with or without BCH; format: cell-based; details: 20 mM of BCH, 5 days, cell numbers counted
Experimental: as §1

[8] = biological target: rat neutral amino acid transporter LAT1 (Rattus norvegicus, UniProt Q63016); experiment: Inhibition of 14C-leucine incorporation into oocytes injected with rat LAT1 and rat 4F2hc cRNA by amino acids and similar substances; format: cell-based; set-up: expressed in transfected cells; host or cells: oocytes (Xenopus laevis by the cited method of Kanai and Hediger) injected with rat LAT1 cRNA and rat 4F2hc cRNA; details: rat LAT1/rat 4F2hc oocytes; 14C-leucine 20 μM, 2 mM unlabeled compound, choline uptake solution
rat neutral amino acid transporter LAT1, sequence (Q63016 whole entry): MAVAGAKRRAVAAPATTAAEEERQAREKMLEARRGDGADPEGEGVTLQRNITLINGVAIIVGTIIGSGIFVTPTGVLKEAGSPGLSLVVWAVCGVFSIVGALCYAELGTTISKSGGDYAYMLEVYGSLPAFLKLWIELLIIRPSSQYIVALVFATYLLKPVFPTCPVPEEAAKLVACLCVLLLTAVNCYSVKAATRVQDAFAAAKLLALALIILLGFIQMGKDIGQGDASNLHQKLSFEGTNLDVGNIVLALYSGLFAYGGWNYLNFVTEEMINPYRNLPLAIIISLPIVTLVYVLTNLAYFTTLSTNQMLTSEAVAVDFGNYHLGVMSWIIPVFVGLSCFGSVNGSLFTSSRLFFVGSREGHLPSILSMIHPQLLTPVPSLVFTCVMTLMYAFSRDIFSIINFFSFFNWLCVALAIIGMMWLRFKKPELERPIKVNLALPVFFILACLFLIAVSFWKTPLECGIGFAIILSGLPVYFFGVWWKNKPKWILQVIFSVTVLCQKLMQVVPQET
rat neutral amino acid transporter LAT1, sequence (Q794F9 whole entry partner): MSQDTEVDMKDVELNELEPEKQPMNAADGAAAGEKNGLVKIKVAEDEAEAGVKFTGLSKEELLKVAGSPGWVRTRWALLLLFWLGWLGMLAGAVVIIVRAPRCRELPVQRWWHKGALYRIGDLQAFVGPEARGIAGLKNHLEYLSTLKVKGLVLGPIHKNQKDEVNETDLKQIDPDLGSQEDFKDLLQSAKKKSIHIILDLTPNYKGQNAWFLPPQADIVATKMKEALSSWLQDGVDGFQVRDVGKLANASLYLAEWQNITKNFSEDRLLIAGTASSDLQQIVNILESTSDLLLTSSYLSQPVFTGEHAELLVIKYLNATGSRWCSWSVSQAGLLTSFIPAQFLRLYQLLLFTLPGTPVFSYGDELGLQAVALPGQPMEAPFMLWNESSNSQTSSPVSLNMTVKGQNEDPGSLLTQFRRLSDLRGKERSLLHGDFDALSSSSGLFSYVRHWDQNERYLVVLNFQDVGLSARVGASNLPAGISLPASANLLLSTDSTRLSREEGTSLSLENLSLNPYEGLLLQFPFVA

NC1(C(=O)O)CC2CCC1C2 (stereo not shown) [BCH, 2-amino-2-norbornane-carboxylic acid]
inhibition of incorporation of 14C-labeled leucine mediated by the human LAT1 [1]: inhibited
effect on proliferation of CCRF-SB cells (CCRF-SB cells): weak
suppression of proliferation of Daudi cells (Human Daudi cells): rarely showed a suppressing effect
cell numbers (O.D. 450) compared with control group [2]: a reduction in the cell numbers was noted
inhibiting mode of leucine incorporation ([3]; 0, 50 μM and 100 μM of BCH, double reciprocal plots): competitive inhibition
pKi ([3]; 14C-leucine incorporation, 50 μM and 100 μM of BCH): 3.81
effect on proliferation of P30/OHK cells (P30/OHK cells): weak
suppressing effect on proliferation [4]: strong suppressing effect
incorporation in a cell in which human LAT1 and human 4F2hc are co-expressed [5]: confirmed
survival effect (Mouse sarcoma 180 cells): significant survival effect
inhibition of incorporation of 14C-leucine by T24 cells [6]: strongly inhibited
suppression of proliferation of T24 cells [7]: highly suppressed
inhibition of incorporation of 14C-leucine mediated by LAT1 [8]: inhibited
